Consider ten compounds from ChEMBL document CHEMBL1201862, “PubChem BioAssay data set” (2004).

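Grown in 96-well plates, cells were treated for 48 hours with each compound at five concentrations. Insufficient inhibition: endpoint recorded as highest concentration tested. At the GI50, growth is halved.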 Activity calls are given as the source filed them. Cut-off read from the data, not from the text of the source: active = GI50 up to about 1.1 µM and inactive = higher. Where only a bound is given, the exact number is not on record here.

Test systems include LOX IMVI; UACC-62; MDA-N; SNB-75; SNB-19; OVCAR-8; SF-268; UO-31; KM12; PC-3; DU-145; SK-MEL-28; MCF7; 786-0; U-251; NCI/ADR-RES; SK-MEL-5; NCI-H522; MDA-MB-435; NCI-H23.
Common to all, as to test: DTP human tumour cell line panel, 48 h

Usually GI50 stands for the concentration at which growth is held to half of that of the control. Consider `O=c1cc(/C=C/c2ccc(O)c(O)c2)cc(/C=C/c2ccc(O)c(O)c2)o1`, for which the GI50 in the assay with LOX IMVI was 15.7 µM (inactive); with UACC-62, 8.39 µM (inactive); with MDA-N it was 11.6 µM (inactive); with SNB-75, 10.5 µM (inactive); in the assay with SNB-19, 8.28 µM (inactive); in the assay on OVCAR-8, 18.6 µM (inactive). Besides, the GI50 is 5.86 µM (inactive) with SF-268; 4.22 µM (inactive) in the assay on UO-31; 8.43 µM (inactive) in the assay on KM12; 9.16 µM (inactive) in the assay on PC-3; 9.23 µM (inactive) with DU-145; 16.4 µM (inactive) in the assay on SK-MEL-28. The GI50 in the assay on MCF7 is 4.05 µM (inactive); with 786-0 it was 14.3 µM (inactive); with U-251, 6.95 µM (inactive); with NCI/ADR-RES, 32.9 µM (inactive); with SK-MEL-5, 8.59 µM (inactive); with NCI-H522, 1.68 µM (inactive). Besides, the GI50 was 12.9 µM (inactive) with MDA-MB-435 and 14.9 µM (inactive) with NCI-H23.
Consider `CC(=O)Oc1c2ccsc2c(OC(C)=O)c2ccsc12`, for which the 50% growth inhibitory concentration (GI50) in the assay with LOX IMVI was 0.184 µM (active); in the assay on UACC-62 it was 1.59 µM (inactive); in the assay with MDA-N, 0.12 µM (active); in the assay with SNB-75 it was 0.286 µM (active); in the assay on SNB-19, 1.47 µM (inactive); in the assay on OVCAR-8, 0.337 µM (active). Also, the GI50 in the assay on SF-268 is 0.906 µM (active); in the assay on UO-31, 1.33 µM (inactive); in the assay with KM12, 1.67 µM (inactive); in the assay on PC-3, 0.164 µM (active); in the assay on DU-145 it was 0.412 µM (active); in the assay on SK-MEL-28, 0.329 µM (active). Further, the concentration for 50% growth inhibition (GI50) with MCF7 is 0.667 µM (active); in the assay with 786-0, 2.62 µM (inactive); in the assay with U-251 it was 0.869 µM (active); in the assay on NCI/ADR-RES, 0.284 µM (active); with SK-MEL-5, 0.167 µM (active); in the assay on NCI-H522, 0.483 µM (active). The GI50 with MDA-MB-435 is 0.179 µM (active); in the assay on NCI-H23, 0.269 µM (active).
Regarding `Cc1cc(-c2cc(C(C)(C)C)c(O)c(C(C)(C)C)c2)c(C)cc1-c1cc(C(C)(C)C)c(O)c(C(C)(C)C)c1`, the GI50 in the assay with LOX IMVI, in the assay with UACC-62, with MDA-N, in the assay on SNB-75, in the assay on SNB-19 and in the assay on OVCAR-8 was > 100 µM (inactive) each time. Besides, the GI50 in the assay with SF-268, with UO-31, with KM12, in the assay on PC-3, in the assay on DU-145 and with SK-MEL-28 was > 100 µM (inactive) in each case. In addition, the GI50 in the assay on MCF7, in the assay on 786-0, with U-251, with NCI/ADR-RES, with SK-MEL-5 and in the assay on NCI-H522 was > 100 µM (inactive) throughout. The results for the GI50 in the assay on MDA-MB-435 and in the assay with NCI-H23 were 13.6 µM (inactive) and > 100 µM (inactive), respectively.
For the compound `O=c1[nH]nc(Cc2ccc(Cl)cc2)n1/N=C\CC/C=N\n1c(Cc2ccc(Cl)cc2)n[nH]c1=O`, the GI50 in the assay with LOX IMVI was 13.6 µM (inactive); in the assay on UACC-62, 10.9 µM (inactive); in the assay on MDA-N it was > 50.9 µM (inactive); in the assay with SNB-75, 7.96 µM (inactive); with SNB-19 it was 32.9 µM (inactive); with OVCAR-8, 14 µM (inactive). In addition, the GI50 was 13.5 µM (inactive) in the assay with SF-268; > 100 µM (inactive) in the assay on UO-31; > 100 µM (inactive) with KM12; > 51.9 µM (inactive) in the assay on PC-3; > 93.1 µM (inactive) with DU-145; 23.6 µM (inactive) with SK-MEL-28. The GI50 is 21.6 µM (inactive) in the assay with MCF7; 18.5 µM (inactive) in the assay with 786-0; 16.4 µM (inactive) in the assay on U-251; 22.2 µM (inactive) with NCI/ADR-RES; 47.3 µM (inactive) in the assay with SK-MEL-5; 25.1 µM (inactive) in the assay on NCI-H522. In addition, the GI50 with MDA-MB-435 was > 53.6 µM (inactive); with NCI-H23, 32.3 µM (inactive).
Consider `O=P12N(CCN1c1ccccc1)CCN2c1ccccc1`, for which the GI50 with LOX IMVI is > 100 µM (inactive); with UACC-62, > 100 µM (inactive); with MDA-N it was > 100 µM (inactive); in the assay on SNB-75, 63.7 µM (inactive); in the assay on SNB-19, > 100 µM (inactive); with OVCAR-8, > 100 µM (inactive). The GI50 in the assay on SF-268, in the assay with UO-31, in the assay with KM12, in the assay on PC-3, in the assay with DU-145 and in the assay on SK-MEL-28 was > 100 µM (inactive) throughout. Further, the GI50 in the assay on MCF7 is > 100 µM (inactive); in the assay on 786-0 it was > 100 µM (inactive); in the assay with U-251, > 100 µM (inactive); in the assay on NCI/ADR-RES it was > 100 µM (inactive); in the assay with SK-MEL-5, > 100 µM (inactive); in the assay on NCI-H522, 84.1 µM (inactive). The GI50 in the assay on MDA-MB-435 and with NCI-H23 was > 100 µM (inactive) in each case.
As to `CC1=NN(c2nc(N)nc(/C(C#N)=C\c3ccc(-c4ccc([N+](=O)[O-])cc4)o3)n2)C(C)(C)C1`, the GI50 was > 100 µM (inactive) in the assay on LOX IMVI; > 100 µM (inactive) in the assay on UACC-62; > 100 µM (inactive) in the assay with MDA-N; 14.2 µM (inactive) in the assay with SNB-75; > 100 µM (inactive) with SNB-19; > 100 µM (inactive) with OVCAR-8. In addition, the GI50 was 65.5 µM (inactive) in the assay on SF-268; > 100 µM (inactive) with UO-31; > 100 µM (inactive) with KM12; > 100 µM (inactive) in the assay on PC-3; > 100 µM (inactive) in the assay with DU-145; > 100 µM (inactive) in the assay on SK-MEL-28. The GI50 was > 100 µM (inactive) with MCF7; > 100 µM (inactive) in the assay with 786-0; 39.5 µM (inactive) in the assay on U-251; > 100 µM (inactive) with NCI/ADR-RES; > 100 µM (inactive) in the assay with SK-MEL-5; > 100 µM (inactive) in the assay on NCI-H522. For the same compound, the GI50 in the assay with MDA-MB-435 and with NCI-H23 was > 100 µM (inactive) each time.
As for `CCOC(=O)N1CCc2cc(OC)c(OC)c3c2c1cc1cc(OC)c(OC)cc13`, the GI50 in the assay on LOX IMVI is 2.28 µM (inactive); in the assay on UACC-62, 0.94 µM (active); with MDA-N, 0.127 µM (active); in the assay with SNB-75, 1.37 µM (inactive); in the assay with SNB-19, 10.9 µM (inactive); in the assay on OVCAR-8, 4.8 µM (inactive). Further, the GI50 in the assay with SF-268 was 4.51 µM (inactive); with UO-31 it was 11.1 µM (inactive); in the assay with KM12, 0.695 µM (active); in the assay with PC-3 it was 1.54 µM (inactive); in the assay on DU-145, 3.59 µM (inactive); in the assay on SK-MEL-28, 4.19 µM (inactive). The GI50 with MCF7 is 1.1 µM (active); in the assay on 786-0, 2.53 µM (inactive); with U-251 it was 2.7 µM (inactive); with NCI/ADR-RES it was 0.655 µM (active); in the assay with SK-MEL-5, 0.499 µM (active); in the assay with NCI-H522, 0.618 µM (active). For the same compound, the figures for the concentration for 50% growth inhibition (GI50) in the assay with MDA-MB-435 and in the assay on NCI-H23 were 0.393 µM (active) and 3.95 µM (inactive), respectively.
As for `COc1cccc2c1OC(c1cccc3ccccc13)C([N+](=O)[O-])=C2` (stereo not given), the GI50 with LOX IMVI is 1.04 µM (active); in the assay on UACC-62, 1.08 µM (active); in the assay on MDA-N, 1.93 µM (inactive); in the assay on SNB-75, 1.32 µM (inactive); with SNB-19 it was 1.53 µM (inactive); in the assay on OVCAR-8, 4.24 µM (inactive). In addition, the GI50 in the assay on SF-268 is 2.96 µM (inactive); in the assay on UO-31, 1.44 µM (inactive); in the assay with KM12 it was 1.63 µM (inactive); with PC-3, 0.902 µM (active); in the assay with DU-145, 2.65 µM (inactive); in the assay on SK-MEL-28, 1.53 µM (inactive). Besides, the GI50 in the assay on MCF7 was 0.728 µM (active); in the assay with 786-0, 1.87 µM (inactive); with U-251 it was 1.56 µM (inactive); in the assay with NCI/ADR-RES, 1.71 µM (inactive); in the assay on SK-MEL-5 it was 1.59 µM (inactive); in the assay on NCI-H522, 1.33 µM (inactive). For the same compound, the GI50 with MDA-MB-435 was 1.51 µM (inactive); in the assay with NCI-H23 it was 1.84 µM (inactive).
As for `COc1ccc(Nc2nc(N)c(C(=O)c3ccc(Cl)cc3)s2)cc1`, the GI50 was < 0.01 µM (active) in the assay with LOX IMVI; < 0.01 µM (active) in the assay on UACC-62; < 0.01 µM (active) in the assay on MDA-N; < 0.01 µM (active) in the assay with SNB-75; < 0.01 µM (active) in the assay on SNB-19; < 0.0126 µM (active) with OVCAR-8. Also, the GI50 in the assay on SF-268 was 0.297 µM (active); with UO-31, < 0.01 µM (active); in the assay with KM12, 0.0432 µM (active); in the assay with PC-3, < 0.01 µM (active); in the assay on DU-145 it was < 0.01 µM (active); in the assay with SK-MEL-28 it was 1.02 µM (active). Moreover, the 50% growth inhibitory concentration (GI50) in the assay on MCF7 is 0.356 µM (active); in the assay with 786-0 it was < 0.01 µM (active); in the assay on U-251 it was < 0.01 µM (active); in the assay on NCI/ADR-RES, < 0.01 µM (active); with SK-MEL-5, 0.0123 µM (active); in the assay with NCI-H522 it was < 0.01 µM (active). The results for the GI50 in the assay with MDA-MB-435 and in the assay on NCI-H23 were < 0.01 µM (active) and < 0.0152 µM (active), respectively.
For the compound `COC(=O)C1(C(=O)OC)Cc2ccc(OC)cc2C2=C1C(=O)c1ccccc1C2=O`, the GI50 was 2.17 µM (inactive) in the assay with LOX IMVI; 1.85 µM (inactive) in the assay on UACC-62; 1.83 µM (inactive) in the assay with MDA-N; 17.7 µM (inactive) in the assay on SNB-75; 16.9 µM (inactive) with SNB-19; 2.4 µM (inactive) in the assay on OVCAR-8. Besides, the GI50 is 6.67 µM (inactive) with SF-268; 3.69 µM (inactive) in the assay on UO-31; 6.85 µM (inactive) in the assay on KM12; 1.87 µM (inactive) in the assay on PC-3; 16.5 µM (inactive) in the assay with DU-145; 17.1 µM (inactive) in the assay on SK-MEL-28. Further, the GI50 in the assay with MCF7 was 2.55 µM (inactive); with 786-0, 4.75 µM (inactive); in the assay with U-251, 5.56 µM (inactive); with NCI/ADR-RES, 2.69 µM (inactive); in the assay on SK-MEL-5, 7.4 µM (inactive); in the assay on NCI-H522 it was 3.45 µM (inactive). In addition, the values for the GI50 in the assay on MDA-MB-435 and in the assay on NCI-H23 were 1.97 µM (inactive) and 6.62 µM (inactive), respectively.
